The source of these data is article doi:10.1101/2023.03.18.532921v1 (biorxiv, 2023).

For orientation: Kd means the free concentration of one partner at which half of the binding sites on the other are occupied at equilibrium, for simple one-to-one binding. A higher Kd goes with a looser complex.

For this experiment, the target named is dA (isolated discontinuous domain A of LAO) (Salmonella enterica, UniProt P02911, DEL114-206). In words: biochemical.

Take `N=C(N)NCCC[C@H](N)C(=O)O` [L-arginine]: the Kd was determined as 131 µM.
